Consider one compound from patent US20220095617A1, “PLANT GROWTH REGULATING AGENT” (IDEMITSU KOSAN CO.,LTD., priority 2019, published 2022).

For experiment [1], the system named is lettuce (Green Wave). The experiment in a line: Example 16: Growth-promoting effect (lettuce, drenching treatment). In kind it is in vivo. Conditions: for Increase/decrease of above-ground part / Increase/decrease of underground part: non-addition group = 100%; for Weight of above-ground part FW / Weight of underground part FW: 25° C., 14 days. The method, then: Lettuce (Green Wave) was sown on a cell tray filled with seedling culture soil (manufactured by Nihon Hiryo Co., Ltd.; “Naebijin N100”). After the two leaf stage, the lettuce was transplanted to each pot (soil volume, 100 ml). […]

In experiment [2] the test system is Rice (Koshihikari) seeds. The experiment in a line: Example 5: High-temperature stress Petri dish test (rice seeds). In kind it is in vivo. Conditions: for Germination rate, Increase rate: non-addition group = 100.0; for Germination rate, Average: seeds 65° C. hot water 10 minutes, 28° C. 5 days. The method, then:
Rice (Koshihikari) seeds were soaked in hot water at 65° C. for 10 minutes to perform high-temperature treatment. […] A group similarly soaked in distilled water was provided as a non-addition group. After the soaking treatment, the seeds were dried in air, and then 20 seeds were sown on each of shallow Petri dishes in which qualitative filter paper was placed. To the filter paper in each Petri dish, 5 mL of distilled water was uniformly added dropwise. […] For each group, three measurement results were obtained (N=3).

Consider `COc1ccc([C@@H]2CC(=O)c3c(O)cc(O[C@@H]4O[C@H](CO[C@@H]5O[C@@H](C)[C@H](O)[C@@H](O)[C@H]5O)[C@@H](O)[C@H](O)[C@H]4O)cc3O2)cc1O` [Hesperidin], for which the figures for the “Increase/decrease of above-ground part” value in experiment [1] (1 ppm), in experiment [1] (3 ppm) and in experiment [1] (100 ppm) were 103%, 126% and 118%, respectively. The “Increase/decrease of underground part” value is recorded as 115% in experiment [1] (1 ppm), 119% in experiment [1] (3 ppm) and 123% in experiment [1] (100 ppm). The entries for the “Weight of above-ground part FW” value in experiment [1] (drenching treatment 1 ppm), in experiment [1] (drenching treatment 3 ppm) and in experiment [1] (drenching treatment 100 ppm) were 13.26 mg/individual, 16.17 mg/individual and 15.12 mg/individual, respectively. Moreover, the “Weight of underground part FW” value in experiment [1] (drenching treatment 1 ppm) was determined as 7.99 mg/individual; in experiment [1] (drenching treatment 3 ppm), 8.29 mg/individual; in experiment [1] (drenching treatment 100 ppm) it was 8.57 mg/individual. Also, the “Germination rate, Increase rate” value in experiment [2] (1 ppm) turned out to be 131.5%; in experiment [2] (10 ppm) it was 146.6%; in experiment [2] (100 ppm), 134.0%. Besides, the entries for the “Germination rate, Average” value in experiment [2] (then soaked 1 hour at 1 ppm), in experiment [2] (then soaked 1 hour at 10 ppm) and in experiment [2] (then soaked 1 hour at 100 ppm) were 77.3%, 86.2% and 78.8%, respectively.
